Like-named read-outs stand apart in the source and are kept apart here.
Test: Plasma levels of 9-deoxo-16,16-dimethyl-9-methylene-PGE2 by radioimmunoassay after insertion of a suppository
Assay type: in vivo, Rhesus monkeys (Macaca mulatta)
Settings: for concentration at 0.25 h / concentration at 1 h / concentration at 1.5 h / concentration at 2 h / concentration at 3 h / concentration at 4 h / concentration at 6 h / concentration at 24 h / concentration at 0.5 h: rhesus monkey, plasma, 30 mg, read-out: Drug Levels
Text: A. Midtrimester pregnant female Rhesus monkeys (Macaca mulatta) are used. (The first day of menstrual bleeding is designated Day 1 of the menstrual cycle; the first day a female is placed with a male for breeding is designated Day 1 of pregnancy. Pregnancy is confirmed by abdominal palpation of the uterus.)
Blood samples are collected into heparinized syringes at specified times following insertion of a suppository in pregnant or non- pregnant monkeys. Plasma is extracted and assayed for 9-deoxo-16,16-dimethyl-9-methylene-PGE2 content by radioimmunoassay.
C. Six suppository lots are prepared (4), each containing 9- deoxo-16,16-dimethyl-9-methylene-PGE2 or its crystalline potassium salt (Examples 1 and 2). Two lots are made with Witepsol H15 alone as the suppository base, two with Witepsol HIS wax plus 2% colloidal silicon dioxide (CSD) and two with Witepsol H15 plus 2% CSD plus 10% triacetin. Suppositories are prepared using Witepsol H15 suppository wax. Free acid or potassium salt is dispersed in the hot wax using a homogenizer. Two percent colloidal silicon dioxide (CSD) is mixed in by further homogenization. In the third formulation, triacetin (10%) is added before the CSD and then homogenized for one minute. Suppositories are formed in 800 mg aluminum molds and are stored at 4°C until used.
D. The plasma levels of 9-deoxo-16,16-d1methy1-9-methy1ene-PGE2 in monkeys treated with 6 formulations containing either 9-deoxo-16,16-dimethyl-9-methylene-PGE2 free acid or potassium salt are shown in Tables 1-6. In general, higher blood levels are measured in pregnant Rhesus monkeys than in non-pregnant monkeys.

[1] = Monkey #1, 30 mg Free Acid in H15 Suppositories
[2] = Monkey #2, 30 mg Free Acid in H15 Suppositories
[3] = Monkey #3 (pregnant animal with uterine recording), 30 mg Free Acid in H15 Suppositories
[4] = Monkey #7, 30 mg Free Acid in H15 Plus 2% CSD Suppositories
[5] = Monkey #8, 30 mg Free Acid in H15 Plus 2% CSD Suppositories
[6] = Monkey #9 (pregnant animal with uterine recording), 30 mg Free Acid in H15 Plus 2% CSD Suppositories
[7] = Monkey #13, 30 mg Free Acid in H15 Plus 2% CSD + 10% Triacetin Suppositories
[8] = Monkey #14, 30 mg Free Acid in H15 Plus 2% CSD + 10% Triacetin Suppositories
[9] = Monkey #15 (pregnant animal with uterine recording), 30 mg Free Acid in H15 Plus 2% CSD + 10% Triacetin Suppositories

## C=C1C[C@@H](O)[C@H](/C=C/[C@@H](O)C(C)(C)CCCC)[C@H]1C/C=C\CCCC(=O)O [Free Acid, 9-deoxo-16,16-dimethyl-9-methylene-PGE2]
Rhesus monkeys, 30 mg (acid equivalents) per dose in three suppository formulations
  bioavailability (drug plasma levels and uterine activity), free acid versus potassium salt: equally bioavailable
[1]
  concentration at 0.25 h: 5.14 ng/mL
  concentration at 1.5 h: 7.89 ng/mL
Monkey #1, 1.0 Hours, 30 mg Free Acid in H15 Suppositories
  concentration at 1 h: 4.39 ng/mL
Monkey #1, 2.0 Hours, 30 mg Free Acid in H15 Suppositories
  concentration at 2 h: 4.16 ng/mL
Monkey #1, 3.0 Hours, 30 mg Free Acid in H15 Suppositories
  concentration at 3 h: 0.23 ng/mL
Monkey #1, 4.0 Hours, 30 mg Free Acid in H15 Suppositories
  concentration at 4 h: 7.43 ng/mL
Monkey #1, 6.0 Hours, 30 mg Free Acid in H15 Suppositories
  concentration at 6 h: 10.1 ng/mL
Monkey #1, 24.0 Hours, 30 mg Free Acid in H15 Suppositories
  concentration at 24 h: 7.68 ng/mL
Monkey #1, .5 Hours, 30 mg Free Acid in H15 Suppositories
  concentration at 0.5 h: 1.69 ng/mL
[2]
  concentration at 0.25 h: 0.61 ng/mL
  concentration at 1.5 h: 3.35 ng/mL
Monkey #2, 2.0 Hours, 30 mg Free Acid in H15 Suppositories
  concentration at 2 h: 5.56 ng/mL
Monkey #2, 3.0 Hours, 30 mg Free Acid in H15 Suppositories
  concentration at 3 h: 13 ng/mL
Monkey #2, 4.0 Hours, 30 mg Free Acid in H15 Suppositories
  concentration at 4 h: 14.7 ng/mL
Monkey #2, 6.0 Hours, 30 mg Free Acid in H15 Suppositories
  concentration at 6 h: 17.3 ng/mL
Monkey #2, 24.0 Hours, 30 mg Free Acid in H15 Suppositories
  concentration at 24 h: 4.97 ng/mL
[3]
  concentration at 0.25 h: 142 ng/mL
  concentration at 1.5 h: 66.8 ng/mL
Monkey #3 (pregnant animal with uterine recording), 1.0 Hours, 30 mg Free Acid in H15 Suppositories
  concentration at 1 h: 93.9 ng/mL
Monkey #3 (pregnant animal with uterine recording), 2.0 Hours, 30 mg Free Acid in H15 Suppositories
  concentration at 2 h: 60.8 ng/mL
Monkey #3 (pregnant animal with uterine recording), 3.0 Hours, 30 mg Free Acid in H15 Suppositories
  concentration at 3 h: 56.1 ng/mL
Monkey #3 (pregnant animal with uterine recording), 4.0 Hours, 30 mg Free Acid in H15 Suppositories
  concentration at 4 h: 35.7 ng/mL
Monkey #3 (pregnant animal with uterine recording), 6.0 Hours, 30 mg Free Acid in H15 Suppositories
  concentration at 6 h: 13.7 ng/mL
Monkey #3 (pregnant animal with uterine recording), 24.0 Hours, 30 mg Free Acid in H15 Suppositories
  concentration at 24 h: 5.67 ng/mL
Monkey #3 (pregnant animal with uterine recording), .5 Hours, 30 mg Free Acid in H15 Suppositories
  concentration at 0.5 h: 63.6 ng/mL
[4]
  concentration at 0.25 h: 39.2 ng/mL
  concentration at 1.5 h: 42.2 ng/mL
Monkey #7, 0.5 Hours, 30 mg Free Acid in H15 Plus 2% CSD Suppositories
  concentration at 0.5 h: 44.5 ng/mL
Monkey #7, 1.0 Hours, 30 mg Free Acid in H15 Plus 2% CSD Suppositories
  concentration at 1 h: 63.9 ng/mL
Monkey #7, 2 Hours, 30 mg Free Acid in H15 Plus 2% CSD Suppositories
  concentration at 2 h: 37 ng/mL
Monkey #7, 3 Hours, 30 mg Free Acid in H15 Plus 2% CSD Suppositories
  concentration at 3 h: 16.9 ng/mL
Monkey #7, 4 Hours, 30 mg Free Acid in H15 Plus 2% CSD Suppositories
  concentration at 4 h: 13.2 ng/mL
Monkey #7, 6 Hours, 30 mg Free Acid in H15 Plus 2% CSD Suppositories
  concentration at 6 h: 6.5 ng/mL
Monkey #7, 24 Hours, 30 mg Free Acid in H15 Plus 2% CSD Suppositories
  concentration at 24 h: 4.01 ng/mL
[5]
  concentration at 0.25 h: 51.4 ng/mL
  concentration at 1.5 h: 61.1 ng/mL
Monkey #8, 0.5 Hours, 30 mg Free Acid in H15 Plus 2% CSD Suppositories
  concentration at 0.5 h: 134 ng/mL
Monkey #8, 1.0 Hours, 30 mg Free Acid in H15 Plus 2% CSD Suppositories
  concentration at 1 h: 88.2 ng/mL
Monkey #8, 2 Hours, 30 mg Free Acid in H15 Plus 2% CSD Suppositories
  concentration at 2 h: 78.3 ng/mL
Monkey #8, 3 Hours, 30 mg Free Acid in H15 Plus 2% CSD Suppositories
  concentration at 3 h: 29.1 ng/mL
Monkey #8, 4 Hours, 30 mg Free Acid in H15 Plus 2% CSD Suppositories
  concentration at 4 h: 12.4 ng/mL
Monkey #8, 6 Hours, 30 mg Free Acid in H15 Plus 2% CSD Suppositories
  concentration at 6 h: 2.49 ng/mL
Monkey #8, 24 Hours, 30 mg Free Acid in H15 Plus 2% CSD Suppositories
  concentration at 24 h: 15.7 ng/mL
[6]
  concentration at 0.25 h: 60.7 ng/mL
  concentration at 1.5 h: 62.8 ng/mL
Monkey #9 (pregnant animal with uterine recording), 0.5 Hours, 30 mg Free Acid in H15 Plus 2% CSD Suppositories
  concentration at 0.5 h: 52.2 ng/mL
Monkey #9 (pregnant animal with uterine recording), 1.0 Hours, 30 mg Free Acid in H15 Plus 2% CSD Suppositories
  concentration at 1 h: 63.1 ng/mL
Monkey #9 (pregnant animal with uterine recording), 2 Hours, 30 mg Free Acid in H15 Plus 2% CSD Suppositories
  concentration at 2 h: 62.9 ng/mL
Monkey #9 (pregnant animal with uterine recording), 3 Hours, 30 mg Free Acid in H15 Plus 2% CSD Suppositories
  concentration at 3 h: 40.2 ng/mL
Monkey #9 (pregnant animal with uterine recording), 4 Hours, 30 mg Free Acid in H15 Plus 2% CSD Suppositories
  concentration at 4 h: 57.8 ng/mL
Monkey #9 (pregnant animal with uterine recording), 6 Hours, 30 mg Free Acid in H15 Plus 2% CSD Suppositories
  concentration at 6 h: 32 ng/mL
Monkey #9 (pregnant animal with uterine recording), 24 Hours, 30 mg Free Acid in H15 Plus 2% CSD Suppositories
  concentration at 24 h: 21 ng/mL
[7]
  concentration at 0.25 h: 12.6 ng/mL
  concentration at 1.5 h: 3.09 ng/mL
Monkey #13, 0.5 Hours, 30 mg Free Acid in H15 Plus 2% CSD + 10% Triacetin Suppositories
  concentration at 0.5 h: 9.25 ng/mL
Monkey #13, 1 Hours, 30 mg Free Acid in H15 Plus 2% CSD + 10% Triacetin Suppositories
  concentration at 1 h: 2.8 ng/mL
Monkey #13, 2 Hours, 30 mg Free Acid in H15 Plus 2% CSD + 10% Triacetin Suppositories
  concentration at 2 h: 5.46 ng/mL
Monkey #13, 3 Hours, 30 mg Free Acid in H15 Plus 2% CSD + 10% Triacetin Suppositories
  concentration at 3 h: 15.1 ng/mL
Monkey #13, 4 Hours, 30 mg Free Acid in H15 Plus 2% CSD + 10% Triacetin Suppositories
  concentration at 4 h: 22.5 ng/mL
Monkey #13, 6 Hours, 30 mg Free Acid in H15 Plus 2% CSD + 10% Triacetin Suppositories
  concentration at 6 h: 23.8 ng/mL
Monkey #13, 24 Hours, 30 mg Free Acid in H15 Plus 2% CSD + 10% Triacetin Suppositories
  concentration at 24 h: 26 ng/mL
[8]
  concentration at 0.25 h: 18.8 ng/mL
  concentration at 1.5 h: 32 ng/mL
Monkey #14, 0.5 Hours, 30 mg Free Acid in H15 Plus 2% CSD + 10% Triacetin Suppositories
  concentration at 0.5 h: 36 ng/mL
Monkey #14, 1 Hours, 30 mg Free Acid in H15 Plus 2% CSD + 10% Triacetin Suppositories
  concentration at 1 h: 25.1 ng/mL
Monkey #14, 2 Hours, 30 mg Free Acid in H15 Plus 2% CSD + 10% Triacetin Suppositories
  concentration at 2 h: 28.7 ng/mL
Monkey #14, 3 Hours, 30 mg Free Acid in H15 Plus 2% CSD + 10% Triacetin Suppositories
  concentration at 3 h: 20.2 ng/mL
Monkey #14, 4 Hours, 30 mg Free Acid in H15 Plus 2% CSD + 10% Triacetin Suppositories
  concentration at 4 h: 16.6 ng/mL
Monkey #14, 6 Hours, 30 mg Free Acid in H15 Plus 2% CSD + 10% Triacetin Suppositories
  concentration at 6 h: 16.2 ng/mL
Monkey #14, 24 Hours, 30 mg Free Acid in H15 Plus 2% CSD + 10% Triacetin Suppositories
  concentration at 24 h: 12.9 ng/mL
[9]
  concentration at 0.25 h: 119 ng/mL
  concentration at 1.5 h: 26.8 ng/mL
Monkey #15 (pregnant animal with uterine recording), 0.5 Hours, 30 mg Free Acid in H15 Plus 2% CSD + 10% Triacetin Suppositories
  concentration at 0.5 h: 154 ng/mL
Monkey #15 (pregnant animal with uterine recording), 1 Hours, 30 mg Free Acid in H15 Plus 2% CSD + 10% Triacetin Suppositories
  concentration at 1 h: 154 ng/mL
Monkey #15 (pregnant animal with uterine recording), 2 Hours, 30 mg Free Acid in H15 Plus 2% CSD + 10% Triacetin Suppositories
  concentration at 2 h: 44.8 ng/mL
Monkey #15 (pregnant animal with uterine recording), 3 Hours, 30 mg Free Acid in H15 Plus 2% CSD + 10% Triacetin Suppositories
  concentration at 3 h: 65.9 ng/mL
Monkey #15 (pregnant animal with uterine recording), 4 Hours, 30 mg Free Acid in H15 Plus 2% CSD + 10% Triacetin Suppositories
  concentration at 4 h: 22.1 ng/mL
Monkey #15 (pregnant animal with uterine recording), 6 Hours, 30 mg Free Acid in H15 Plus 2% CSD + 10% Triacetin Suppositories
  concentration at 6 h: 13 ng/mL
Monkey #15 (pregnant animal with uterine recording), 24 Hours, 30 mg Free Acid in H15 Plus 2% CSD + 10% Triacetin Suppositories
  concentration at 24 h: 2.76 ng/mL
